# Target: T1, mouse GnRH receptor (Mus musculus, UniProt Q01776)
# T1 construct: expressed in transfected cells; host or cells: 293 cells
# T1 sequence (Q01776 1-327): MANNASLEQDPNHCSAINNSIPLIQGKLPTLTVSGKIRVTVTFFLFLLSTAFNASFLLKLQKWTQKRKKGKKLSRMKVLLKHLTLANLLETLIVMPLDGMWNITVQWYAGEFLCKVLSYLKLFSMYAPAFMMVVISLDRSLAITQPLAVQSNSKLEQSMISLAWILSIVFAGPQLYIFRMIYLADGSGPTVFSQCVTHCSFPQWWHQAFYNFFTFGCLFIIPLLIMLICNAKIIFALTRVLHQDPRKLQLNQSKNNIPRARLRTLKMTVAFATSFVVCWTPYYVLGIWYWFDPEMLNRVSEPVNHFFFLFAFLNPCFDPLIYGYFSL
# Test: Radioligand binding, 125I-GnRH-A, 293 cells expressing mouse GnRH receptors
# Conditions: 10 uM; read-out: % Inhib. @ 10 uM mGnRH
# How it was run: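 Bound label captured on 0.1% polyethyleneimine-treated GF/C filters, washed three times with PBS, counted. IC50 derived; identical set-up for every species.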
row,Compound,inhibition at 10 µM [%]
1,Cc1cc2c(cc1Cc1ccc(C(=O)NCc3cccc(NC(=O)NC(Cc4ccccc4)c4ccccc4)c3)o1)C(C)(C)CCC2(C)C (centres unmarked) [drawing 1570],42
2,CCCCCNC(=O)c1ccc(Cc2cc3c(cc2C)C(C)(C)CCC3(C)C)o1,91
3,CCC1CCC(C)N(C(=O)c2ccc(Cc3cc4c(cc3C)C(C)(C)CCC4(C)C)o2)C1 (centres unmarked),95
4,COc1ccc(CCN(CC(C)c2ccccc2)C(=O)c2ccc(Cc3cc4c(cc3C)C(C)(C)CCC4(C)C)o2)cc1OC (centres unmarked),72
5,CCCNC(=O)c1ccc(Cc2cc3c(cc2C)C(C)(C)CCC3(C)C)o1 [drawing 1274],93
6,Cc1cc2c(cc1Cc1ccc(C(=O)N(Cc3ccsc3)C3CCN(Cc4ccccc4)C3)o1)C(C)(C)CCC2(C)C (centres unmarked) [drawing 1560],91
7,Cc1cc2c(cc1Cc1ccc(C(=O)N(Cc3cccnc3)CC3CC=CCC3)o1)C(C)(C)CCC2(C)C (centres unmarked) [drawing 1318],94
8,Cc1cc2c(cc1Cc1ccc(C(=O)N(C)CCC(O)c3ccccc3)o1)C(C)(C)CCC2(C)C (centres unmarked),99
9,Cc1cc2c(cc1Cc1ccc(C(=O)N3CCN(C(=O)c4ccco4)CC3)o1)C(C)(C)CCC2(C)C [drawing 1264],89
10,CSCCC(CO)NC(=O)c1ccc(Cc2cc3c(cc2C)C(C)(C)CCC3(C)C)o1 (centres unmarked) [drawing 1580],105
11,Cc1cc2c(cc1Cc1ccc(C(=O)N(Cc3cccc(Oc4cccc(C(F)(F)F)c4)c3)CC(C)(C)CN(C)C)o1)C(C)(C)CCC2(C)C,89
12,CCN1CCCC1CNC(=O)c1ccc(Cc2cc3c(cc2C)C(C)(C)CCC3(C)C)o1 (centres unmarked),96
13,CCCCN(C)C(=O)c1ccc(Cc2cc3c(cc2C)C(C)(C)CCC3(C)C)o1 [drawing 1548],100
14,Cc1cc2c(cc1Cc1ccc(C(=O)N(CC#N)CC#N)o1)C(C)(C)CCC2(C)C,64

# Same assay, conditions: 1 h, substrate remaining; 10 uM compound; closer to zero = closer to 100% inhibition; read-out: S%R 10 uM mGnRHR
row,Compound,remaining activity at 10 µM [%]
1,Cc1cc2c(cc1Cc1ccc(C(=O)NC3CCCCC3O)o1)C(C)(C)CCC2(C)C (centres unmarked) [Compound 650],4
2,Cc1cc2c(cc1Cc1ccc(C(=O)NCC3(O)CCCCC3)o1)C(C)(C)CCC2(C)C [Compound 571],36
3,CNCCCNC(=O)c1ccc(Cc2cc3c(cc2C)C(C)(C)CCC3(C)C)o1 [Compound 498],58
4,Cc1cc2c(cc1Cc1ccc(C(=O)N3CCC(n4c(=O)[nH]c5ccccc54)CC3)o1)C(C)(C)CCC2(C)C [Compound 670],16
5,Cc1cc2c(cc1Cc1ccc(C(=O)NC(C)(CO)CO)o1)C(C)(C)CCC2(C)C [Compound 564],45
6,Cc1cc2c(cc1Cc1ccc(C(=O)NC(C)c3ccccc3)o1)C(C)(C)CCC2(C)C (centres unmarked) [Compound 616],29
7,CC(=O)N1CCCN(C(=O)c2ccc(Cc3cc4c(cc3C)C(C)(C)CCC4(C)C)o2)CC1 [Compound 599],28
8,Cc1cc2c(cc1Cc1ccc(C(=O)N3CCN(CCO)CC3)o1)C(C)(C)CCC2(C)C [Compound 537],32
9,Cc1cc2c(cc1Cc1ccc(C(=O)NCCc3ccccn3)o1)C(C)(C)CCC2(C)C [Compound 507],-4
10,CCN1CC(N(Cc2ccccc2C#N)C(=O)c2ccc(Cc3cc4c(cc3C)C(C)(C)CCC4(C)C)o2)CN1CC [Compound 646],0
11,Cc1cc2c(cc1Cc1ccc(C(=O)N(CCCN3CCN(C)CC3)Cc3ccc(F)cc3)o1)C(C)(C)CCC2(C)C [Compound 583],-3
12,Cc1cc2c(cc1Cc1ccc(C(=O)NCCc3cccc(Oc4ccccc4)c3)o1)C(C)(C)CCC2(C)C [Compound 504],46
13,CCN1CC(N(Cc2ccc(N(C)C)cc2)C(=O)c2ccc(Cc3cc4c(cc3C)C(C)(C)CCC4(C)C)o2)CN1CC [Compound 653],6
14,Cc1cc2c(cc1Cc1ccc(C(=O)NCCc3ccc4c(c3)OCO4)o1)C(C)(C)CCC2(C)C [Compound 467],-1
15,Cc1cc2c(cc1Cc1ccc(C(=O)N(CCC3CCCN3C)Cc3ccc4ccccc4c3)o1)C(C)(C)CCC2(C)C (centres unmarked) [Compound 598],-4

# Reference: patent publication US7101878B1 (Agouron Pharmaceuticals, Inc., priority 1998, dated 2006)
